{
  "source": "patent US12071469B2",
  "about": "“Peptide compounds for suppressing inflammation” (Duke University, priority 2011, dated 2024)",
  "key": {"[1]": {"system": "mixed glial primary culture", "experiment": "Suppression of TNF-α release in mixed glial primary culture after exposure to LPS", "format": "cell-based, murine", "settings": "FIGS. 11A and 11B", "protocol": "In vitro methods have been developed using cultured cells for evaluating the ability of a compound, such as a peptide, to suppress glial activation. Laskowitz et al., (2001) Exp. Neurol., 167:74-85. Glial cell cultures were grown and maintained under standard conditions. Cultured glial cells may include primary murine mixed glial cell cultures, murine BV-2 microglial cells, and human C3 microglial cells. Adherent glial cells were washed with OptiMEM® medium (available from Invitrogen Corp.) to remove serum and covered with fresh OptiMEM® medium containing peptide.\nLarger peptides or proteins may need to be tested at higher concentrations to observe measurable suppression of glial activation. If using primary murine cells and BV-2 cells, cells are stimulated with 100 ng/ml E. coli LPS (available from Sigma-Aldrich Co.), and supernatant is collected six hours after LPS stimulation and assayed for nitrite (using a colorimetric Griess reagent system, available from Promega Corp.) and/or TNF-α (using a solid-phase ELISA kit, available from Invitrogen Corp.). If using human C3 cells, cells are stimulated with 200 μg/ml polyinosinic acid 5′ (available from Sigma-Aldrich Co.), and supernatant is collected 5 days after stimulation and assayed for TNF-α using a solid-phase ELISA kit (available from Invitrogen Corp.).\nThe protective activity against brain injury-downregulating CNS inflammatory response was determined for ApoE mimetic peptides, VR-55 (SEQ ID NO: 4), VL-5-1 (SEQ ID NO: 5) and VL-5-3 (SEQ ID NO: 10)."}, "[2]": {"system": "mice with traumatic brain injury", "experiment": "Rotorod vestibulomotor function after traumatic brain injury", "format": "in vivo, mouse", "settings": "0.05 mg/kg iv at 2 h and 6 h after traumatic brain injury", "protocol": "An experimental murine model for traumatic brain injury was developed. Laskowitz, et al. (2010) J. Neurotrauma, 27:1983-95. Male mice (age 12-14 weeks) were anesthetized with 4.3% isoflurane in oxygen in an anesthesia induction box for 90 seconds. The trachea was intubated and the lungs mechanically ventilated with 1.4% isoflurane in a 50/50 mixture of oxygen and nitrogen. Body temperature was maintained at 37° C. using surface heating/cooling. The top of the skull was exposed by a midline incision to identify anatomical landmarks, and a concave 3-mm metallic disc was secured to the skull surface with an adhesive, directly midline and just caudal to the bregma. The disc diffused the energy of impact and reduced the incidence of depressed skull fracture to less than 10%. After general anesthesia, mice were positioned in a stereotactic device and the skull was exposed. A pneumatic impactor (diameter: 2.0 mm; available from Air-Power, Inc.) discharged at 6.8±0.2 m/s with a head displacement of 3 mm was used to deliver a single midline impact to the disc surface.\nAn experimental procedure for measuring neurological deficits was developed. An automated rotorod (available from Ugo Basile North America, Inc.) was used to assess vestibulomotor function. On the day before experimental induction of a neurological condition or injury (such as, for example, traumatic brain injury or intracerebral hemorrhage as described above), mice under went two consecutive conditioning trials at a set rotational speed (16 revolutions per minute) for 60 seconds followed by three additional trials with an accelerating rotational speed. The average time to fall from the rotating cylinder in the latter three trials was recorded as baseline latency. After injury, mice under went consecutive daily testing with three trials of accelerating rotational speed (intertribal interval of 15 minutes). Average latency to fall from the rod was recorded, and mice unable to grip the rod were scored with a latency of 0 seconds.\nGroups of mice received either an ApoE mimetic peptide (SEQ ID NO:3; 0.05 mg/kg or 0.2 mg/kg) or carrier (saline) by intravenous tail vein injection at 2 hours and again at 6 hours after traumatic brain injury induced as described in Example 3. Each mouse was tested for vestibulomotor function by rotorod latency measured before and after injury, as described in Example 3.\nGroups of mice received either an ApoE mimetic peptide (SEQ ID NO:4; 0.05 mg/kg) or carrier (saline) by intravenous tail vein injection at 2 hours and again at 6 hours after traumatic brain injury induced as described in Example 3. Each mouse was tested for vestibulomotor function by rotorod latency measured before and after injury, as described in Example 3. […]"}, "[3]": {"system": "primary rat neuronal cortical culture exposed to NMDA", "experiment": "Neuroprotection from NMDA mediated cell death in primary neuronal culture (LDH release)", "format": "cell-based", "protocol": "Peptides of 5 amino acids in length were applied to one or more samples of cells in parallel at concentrations ranging from about 0 to about 50 μM, such as 0.3, 3, and 30 μM. The peptides AL-10-1 (SEQ ID NO:18) and VL-17-9 (SEQ ID NO:19), which are longer peptides (12 amino acids each) were used as negative and positive controls, respectively. A series of peptides were screened in primary rat neuronal cortical culture exposed to NMDA using the method described in Aono et al., Neuroscience (2003) 116:437 and Aono et al., Neurobiology of Disease (2002) 11:214, both of which are incorporated by reference in their entirety (see Table 2). Neuroprotection from NMDA mediated cell death in primary neuronal culture was expressed as percentage decrease in LDH, 24 hours after exposure to NMDA compared to vehicle treated cultures (Table 2). LDH release is indicative of neuronal death after NMDA exposure. The peptide VR-55 (SEQ ID NO:4) reduced NMDA mediated excitotoxic cell death by approximately 19% at a concentration of 1 μM. […] The positive control peptide VL-17-9 reduced LDH release by 31%.\nDose response of the neuroprotection from NMDA excitotoxicity in primary neuronal culture was determined for ApoE mimetic peptide VR-55 (SEQ ID NO: 4). […] “0” indicates less than 5% suppression; “+” indicates 5-10% suppression; “++” indicates 11-20% suppression; and “+++” indicates greater than 20% suppression. In addition to VL-17-9, several other candidates had greater than 20% suppression, including VR-55, VL-5-1, VL-5-2 and VR-52."}},
  "note": "“Also recorded” adds a separate entry of the source.",
  "data": [
    {"substance": "Ac-VSRRR-NH2 [VR-55, Ac-VSRRR-NH2]", "values": [
      {"measurement": "release of inflammatory cytokine TNF-α", "setting": "[1]", "value": "inhibition of microglial TNF-α secretion; also recorded: suppress the release of inflammatory cytokine TNF-α"},
      {"measurement": "durability of effect on rotorod latency", "setting": "[2]", "value": "durable through the five-day testing period"},
      {"measurement": "vestibulomotor performance (rotorod latency) compared to carrier", "setting": "[2]; FIG. 3", "value": "improved vestibulomotor performance"},
      {"measurement": "dose response of percent suppression of LDH release after NMDA exposure", "setting": "[3]; FIG. 6", "value": "dose dependent"},
      {"measurement": "percentage decrease in LDH, 24 hours after exposure to NMDA compared to vehicle treated cultures", "setting": "[3]; peptide 0.1 μM", "value": "−2.85", "unit": "%"},
      {"measurement": "percentage decrease in LDH, 24 hours after exposure to NMDA compared to vehicle treated cultures", "setting": "[3]; peptide 0.3 μM", "value": 1.50, "unit": "%"},
      {"measurement": "suppression of LDH release, cumulative data (class)", "setting": "[3]; peptide 1 μM, cumulative data", "value": "+++ (greater than 20% suppression)"},
      {"measurement": "percentage decrease in LDH, 24 hours after exposure to NMDA compared to vehicle treated cultures", "setting": "[3]; peptide 3 μM", "value": 15.91, "unit": "%"}
    ]}
  ]
}
